Format in all cases: cell-based
The subject of one data set is PC12 cells. Briefly: 4HNE-induced apoptosis, annexin V-PE / 7-AAD flow cytometry. An excerpt: Apoptosis is a specific mode of cell death recognized by a characteristic pattern of morphological, biochemical, and molecular changes. Currently the hallmark of apoptosis in vitro is DNA fragmentation and changes in plasma membrane reorganization that allows for the surface expression of phosphatidyl-D-serine and result in increased membrane permeability. The protection of cells against 4HNE by CLN using increased permeability and cell membrane expression of phosphatidyl-D-serine was investigated.
Cells were simultaneously labeled with fluorochrome-conjugated annexin V-PE (detecting PS asymmetry in the plasma membrane, an early marker of apoptosis), 7-aminoactinomycin D (7-AAD) (detecting increased membrane permeability associated with both apoptosis and necrosis). A dual laser flow cytometer (either a Becton-Dickinson FACScan) was used for the simultaneous detection of the PE-conjugated annexin V (which is excited at […]), 7-AAD (excited at 488 nm and emitting at 670 nm). Fluorochrome compatibility was excellent, although careful intralaser compensation is required for simultaneous use of PE and 7-AAD.
On the technique in general: In flow cytometry, cells or beads pass a laser one at a time.

A further data set deals with JNK. Briefly: 4HNE-induced JNK phosphorylation, Western blot with anti-phospho-(Thr-183/Tyr-185) JNK antibody. Conditions: PC12 cells. The method, then:
Western blot analysis: PC12 cells were plated at 7×10^6 cells/T75 flask. After exposure to 4HNE, colostrinin or their combination, cells were collected and lysed in 50 millimolar (mM) Tris, 5 mM EDTA, 150 mM NaCI, 0.5% NP-40, 10% glycerol and protease inhibitor cocktail (supplemented with 1 mM Na3VO4, 2 mM EDTA, 1 mM phenylmethylsulfonyl fluoride). Lysates were centrifuged at 14,000 g for 10 minutes (min) (4° C.) and 40 μg of protein was fractionated on a 10% SDS-polyacrylamide gel and transferred to protein-optimized membranes (Amersham, Inc.). p53 was detected using specific antibody (DO1; Santa Cruz Biotechnology, Inc.) at a dilution of 1:300. Adducts were detected using an antibody to HNE-protein adducts (Pharmingen, Inc.) at a dilution of 1:500. The anti-phospho-JNK antibody (New England Biolabs, Inc., Beverly, Mass.) was raised against a synthetic phosphopeptide (SFMMT*PY*VVTRYYR) corresponding to residues 179-193 of JNK. […]
The effect of CLN on 4HNE-induced activation of JNK in PC12 cells was investigated. The activation of JNK was monitored by Western blot analysis using a highly specific anti-phospho- (Thr-183/Tyr-185) JNK antibody (Materials and Methods).
Background: A western blot detects proteins with antibodies after separation by electrophoresis.

The subject of data set [1] is 4HNE-protein adducts in PC12 cells. Nature of the data set: 4HNE-protein adduct levels, Western blot analysis. The conditions noted are these: 4HNE alone 25, 12.5, 6.2 nM. The method, then:
(§1) Western blot analysis: PC12 cells were plated at 7×10^6 cells/T75 flask. After exposure to 4HNE, colostrinin or their combination, cells were collected and lysed in 50 millimolar (mM) Tris, 5 mM EDTA, 150 mM NaCI, 0.5% NP-40, 10% glycerol and protease inhibitor cocktail (supplemented with 1 mM Na3VO4, 2 mM EDTA, 1 mM phenylmethylsulfonyl fluoride). Lysates were centrifuged at 14,000 g for 10 minutes (min) (4° C.) and 40 μg of protein was fractionated on a 10% SDS-polyacrylamide gel and transferred to protein-optimized membranes (Amersham, Inc.). p53 was detected using specific antibody (DO1; Santa Cruz Biotechnology, Inc.) at a dilution of 1:300. Adducts were detected using an antibody to HNE-protein adducts (Pharmingen, Inc.) at a dilution of 1:500. The anti-phospho-JNK antibody (New England Biolabs, Inc., Beverly, Mass.) was raised against a synthetic phosphopeptide (SFMMT*PY*VVTRYYR) corresponding to residues 179-193 of JNK. For visualization of primary antibody binding, all blots were incubated with horseradish peroxidase-conjugated secondary antibody (Amersham, Inc.) at a dilution of 1:2000, followed by chemiluminescence detection (Amersham, Inc.) and autoradiography.
To confirm the results generated by immunochemistry, Western blot analysis was used to investigate changes in 4HNE-protein adduct levels in cells treated with 4HNE alone or CLN plus 4HNE.

Data set [2] concerns intracellular GSH levels in PC12 cells. Briefly: Intracellular glutathione (GSH), o-phthalaldehyde fluorescence. The method, then:
Measurement of glutathione (GSH): In brief, PC12 cells were mock- or pre-treated with CLN or lactalbumin hydrolysate (LAH), both in 10 μg/ml concentration and then exposed to 4HNE (25 nM). PBS-washed (twice) cells were then extracted with 25% (w/v) metaphosphoric acid solution containing 5 mM EDTA. After ultracentrifugation (105,000 g for 30 min), 100 μl of 100 mM phosphate solution (pH 8.0) containing 5 mM EDTA and 10 μl of o-phthalaldehyde OPA(OPD; Molecular Probes, Inc.) was added to the supernatant, and the fluorescence intensity at 420 nm determined with excitation set at 350 nm (A. P. Senft et al., Anal Biochem., 280:80-86 (2000)).
To investigate whether the anti-oxidant effect of CLN was due to protection of intracellular GSH levels, PC12 cells were pre-treated (with CLN or LAH) and exposed to 4HNE, as described above, and changes in GSH levels were determined fluorimetrically. […] OPA (o-phthalaldehyde or phthalic dicarboxaldehyde) is highly fluorescent when it is conjugated to GSH (A. P. Senft et al., Anal Biochem., 280:80-86 (2000)).

The subject of data set [3] is 4HNE-protein adducts in PC12 cells. Briefly: 4HNE-protein adduct formation, immunocytochemistry / fluorescent microscopy. An excerpt:
Cell cultures: Pheochromocytoma (PC12) cells were provided by Dr. Regino Perez-Polo (University of Texas Medical Branch, Department of Human Biological Chemistry and Genetics) and maintained in EMEM supplemented with 10% fetal bovine serum, penicillin (100 IU/ml) and streptomycin (100 micrograms per milliliter (μg/ml)). Exponentially growing populations of PC12 cells were sub-cultured and used for all experiments. Immunocytochemistry: […] Cells were permeabilized by 0.3% Triton X-100, washed in PBS then incubated with primary antibody in PBS containing 0.05% Tween 20 (PBS-T). After washing 3 times in PBS-T, FITC-labeled anti-rabbit IgG (Santa Cruz Biotechnology Inc.) was added. Cells were washed (5 times, for 10 min) with PBS-T and mounted on microscope slides in anti-fade solution (Dako, Inc.). Images of cellular immunofluorescence were acquired using a NIKON Eclipse TE300 scanning microscope. Fluorescent microscopy and Western blot analysis was undertaken to investigate the extent of 4HNE protein-adduct formation in cultures of PC12 cells in the presence of CLN. Cells were pretreated with CLN or LAH in the presence or absence of 4HNE and then analyzed for the formation of 4HNE-protein adducts.

In data set [4] the test system is GSH extrusion from PC12 cells. Briefly: Reduced GSH in extracellular fluid (GSH extrusion), OPA-GSH fluorescence. The conditions noted are these: 4HNE, relative to CLN- or mock-treated cells, data not shown. On the procedure: To determine whether the loss of intracellular GSH was due to it's extrusion from the cells or oxidation, the level of reduced GSH in the extra-cellular fluid was evaluated.

The subject of the next data set is p53. Briefly: 4HNE-induced activation of p53, Western blot. The conditions noted are these: PC12 cells; 4HNE alone. The method, then:
as §1
Whether CLN could modulate p53 levels after 4HNE exposure was also investigated.

In a further data set the test system is SH-SY5Y cells. Briefly: Protection against retinoic acid toxicity in SH-SY5Y cells, graded under the microscope. The conditions noted are these: for DIFFERENTIATION: Retinoic Acid 20 μM (Day 1) alone. The method, then: Retinoic Acid was left on the plate for the duration of the experiment or until washed off. Colostrinin was added to the plate at the indicated doses. When added on Day 1, it was present during the entire experiment. When added on Day 5, it was incubated on the plate for 30 minutes at 37° C. and then removed. The wells were washed twice with PBS before adding β-Amyloid. Cultures were then observed under the microscope and graded.

This is an account of results in patent US20050042300A1, “Use of colostrinin, constituent peptides thereof, and analogs thereof as inhibitors of apoptosis and other cellular damage” (priority 2002, published 2005).

Turning to `CCCCCC(O)/C=C/C=O` (stereo not drawn) [4HNE], in the data set with PC12 cells (4HNE 25 nM), the “toxic effects / apoptosis” value is “did not show toxic effects or induce apoptosis”. Besides, the apoptosis entry with PC12 cells (4HNE 100 nM) is “Induction of apoptosis”. Further, the JNK phosphorylation entry in the data set on JNK (4HNE 25 nM alone) is “potent inducer of JNK phosphorylation”. Besides, the “levels of 4HNE-protein adducts (Western blot)” value in data set [1] was “significant increase”. Further, the “loss of GSH” value in data set [2] (25 nM 4HNE) is on record as “more than 50%”. Besides, the “intracellular GSH levels (OPA-GSH fluorescence)” value in data set [2] (4HNE 25 nM alone, 30 min) was “significant reduction”. Further, the “fluorescence due to antibody binding to 4HNE-protein adducts” value in data set [3] (4HNE 25 nM alone) is on record as “bright fluorescence”. Also, in data set [4], the “OPA-GSH-mediated fluorescence of extracellular fluid” value was “significant increase”. The “activation of p53” value in the data set with p53 is listed as “induced its activation”.

For the compound `Nc1ncnc2c1nc(Sc1ccc(Cl)cc1)n2[C@@H]1O[C@@H]2COP(=O)(O)O[C@H]2[C@H]1O` [8-(4-chlorophenylthio)-cAMP], the “4HNE-induced JNK phosphorylation” value with JNK (pretreatment with inhibitor of JNK activation, 4HNE) was “prevented 4HNE-induced JNK phosphorylation”.

With `OO` [H2O2], the “fluorescence due to antibody binding to 4HNE-protein adducts” value in data set [3] (H2O2 100 μM) is listed as “bright fluorescence”.

Regarding `CC1=C(/C=C/C(C)=C/C=C/C(C)=C/C(=O)O)C(C)(C)CCC1` [Retinoic Acid], the DIFFERENTIATION entry with SH-SY5Y cells (observed Day 2) is “++++ (Approximately 100% of the cells)”; with SH-SY5Y cells (observed Day 8), “+ (Approximately 25% of the cells)”. In addition, the “onset of toxicity of retinoic acid” value in the data set on SH-SY5Y cells (SH-SY5Y cells, retinoic acid 20 μM) is on record as “started showing signs of toxicity by day 6”. The “toxicity of retinoic acid” value in the data set with SH-SY5Y cells (SH-SY5Y cells, retinoic acid 40 μM) is “toxicity developed too rapidly”.
